Entries after “also recorded” stand apart in the source; their conditions may differ. Square brackets hold non-standard residues; d marks the D form. Peptide text beside a SMILES is read from it. * marks the point of attachment. Daunorubicin(13-NOCH2CO) = COc1cccc2c1C(=O)c1c(O)c3c(c(O)c1C2=O)C[C@@](O)(C(C)=NOCC(=O)*)C[C@@H]3O[C@H]1C[C@H](N)[C@H](O)[C@H](C)O1; pGlu = O=C1CC[C@@H](C(=O)O)N1; Butyryl = CCCC(=O)* Where only a bound is given, the exact number is not on record here.

Consider eight compounds from article PMC6320914 (Pharmaceutics, 2018).

The test system of series [1] is HT-29 human colon cancer cells. It counts as cell-based. As to conditions: 24 h treatment in serum-free medium (0.068–150 µM), then 48 h in complete medium; alamarBlue fluorescence; mean ± SE, performed twice, four parallels. The method, then:
(§1) Dulbecco’s Modified Eagle Medium (DMEM, Lonza, Basel, Switzerland), supplemented with 10% (v/v) Fetal Bovine Serum (FBS, Lonza), L-glutamine (2 mM, Lonza), non-essential amino acids (NEAA, Sigma-Aldrich Kft), sodium pyruvate (1 mM, Lonza) and Penicillin-Streptomycin (Lonza) was used to culture MCF-7 human breast adenocarcinoma cells (ATCC:HTB-22). HT-29 human colon adenocarcinoma cells (ATCC:HTB-38) were maintained in RPMI-1640 (Lonza), supplied with 10% FBS, L-glutamine and Penicillin-Streptomycin. MDA-MB-231 breast adenocarcinoma cells were cultured in DMEM (Lonza), supplemented with 10% FBS and Penicillin-Streptomycin. Cells were maintained in plastic culture dishes at 37 °C with a humidified atmosphere containing 5% CO2/95% air.
(§2) 5 × 10^3 cells per well were seeded to 96-well plates (Sarstedt, Nümbrecht, Germany), in a complete cell medium. After 24 h, the cells were treated with bioconjugates in a serum-free medium (concentration range 0.068–150 µM, control wells were treated with a serum-free medium). On the next day, cells were washed two times with a serum-free medium and incubated in a complete medium for 48 h. The cell viability was determined using alamarBlue reagent® (ThermoFisher Scientific) by following the manufacturer’s instructions. A Synergy H4 multi-mode microplate reader (BioTek, Winooski, VT, USA) was used for fluorescence detection (λEx = 570 and at λEM = 620 nm). Experiments were performed twice, using four parallels per concentration. Cell viabilities (and IC50 values) were calculated with Origin Pro8 (OriginLab Corp., Northampton, MA, USA.) using a nonlinear regression (sigmoidal dose–response).
On the technique in general: Alamar Blue is a resazurin reagent that responds to reducing activity.

In series [2] the test system is MCF-7 human breast cancer cells. It counts as cell-based. As to conditions: 24 h treatment in serum-free medium (0.068–150 µM), then 48 h in complete medium; alamarBlue fluorescence; mean ± SE, performed twice, four parallels. On the procedure: as §1, §2
The subject of series [3] is MDA-MB-231 human breast cancer cells. It counts as cell-based. As to conditions: 24 h treatment in serum-free medium (0.068–150 µM), then 48 h in complete medium; alamarBlue fluorescence; mean ± SE, performed twice, four parallels. The method, then:
as §1, §2

Series [4] can be described thus: rat liver lysosomal homogenate in 0.2 M NH4OAc buffer (pH 5). The settings on record: 37 °C, up to 24 h.
Series [5] can be described thus: 90% human plasma. The settings on record: 37 °C, up to 24 h.
Series [6] deals with T1, GnRH-RI expressed on human prostate cancer (Homo sapiens, UniProt P30968).
T1 construct: Tissue samples of human prostate cancer cells were obtained from a patient at the time of initial surgical treatment; from tissue; host or cells: human prostate cancer surgical specimen, cell membrane homogenate
T1 sequence (P30968 1-328): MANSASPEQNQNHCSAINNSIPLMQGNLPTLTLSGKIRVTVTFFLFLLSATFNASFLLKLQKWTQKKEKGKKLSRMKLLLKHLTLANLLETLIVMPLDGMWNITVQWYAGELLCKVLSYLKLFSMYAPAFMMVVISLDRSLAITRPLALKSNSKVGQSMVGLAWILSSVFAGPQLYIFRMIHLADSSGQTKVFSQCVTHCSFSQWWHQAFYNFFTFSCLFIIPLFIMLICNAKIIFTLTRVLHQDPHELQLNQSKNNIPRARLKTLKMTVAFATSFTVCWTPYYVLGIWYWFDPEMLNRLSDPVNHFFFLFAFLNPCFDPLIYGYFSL
Set-up: method as in PMID 10647698, PMID 20859992. As to conditions: concentrations up to 1 µM; cited from earlier work.

For series [7], the target named is T1, GnRH-RI expressed on human prostate cancer. The experiment in a line: Radioligand competition with [125I]-triptorelin, human prostate cancer membranes. It counts as binding. The settings on record: membrane fractions of human prostate cancer specimens, Figure 5. On the procedure:
Ligand competition assays with radiolabeled triptorelin were performed to evaluate the binding affinity of K2 and 10 to GnRH-RI expressed on human pituitary and human prostate cancer cells as reported earlier. Tissue samples of human prostate cancer cells were obtained from a patient at the time of initial surgical treatment and normal human pituitary tissue (anterior lobe) derived by autopsy. All subjects gave their informed consent for inclusion before they participated in the study. The collection and the use of these specimens for our studies were conducted in accordance with the Declaration of Helsinki and approved by the local Institutional Ethics Committee (UD REC/IEC 4831-2017). To study the binding affinity of the compounds, cell membrane homogenates were prepared as previously described. Apart from that, triptorelin was radioiodinated using the chloramine-T method, followed by purification by RP-HPLC [34, 40, 41, 44]. To determine the binding affinities of the nonradio-labeled GnRH-III bioconjugates to GnRH-RI, the displacement of [^125I]-GnRH-I-[^6D-Trp] was studied by an in vitro ligand competition assay. […] To determine the protein concentration by the method of Bradford, a Bio-Rad protein assay kit (Bio-Rad Laboratories, USA) was used. The LIGAND-PC computerized curve-fitting program of Munson and Rodbard was used to determine the receptor binding characteristics and IC50 values.
On the technique in general: In a radioligand displacement assay an active substance lowers the binding of a labelled ligand.

For the compound `CCCC(=O)NCCCC[C@H](NC(=O)[C@H](Cc1c[nH]c2ccccc12)NC(=O)[C@H](Cc1c[nH]cn1)NC(=O)[C@@H]1CCC(=O)N1)C(=O)N[C@@H](Cc1c[nH]cn1)C(=O)N[C@@H](CC(=O)O)C(=O)N[C@@H](Cc1c[nH]c2ccccc12)C(=O)N[C@@H](CCCCNC(=O)CON=C(C)[C@]1(O)Cc2c(O)c3c(c(O)c2[C@@H](O[C@H]2C[C@H](N)[C@H](O)[C@H](C)O2)C1)C(=O)c1c(OC)cccc1C3=O)C(=O)N1CCC[C@H]1C(=O)NCC` [compound 14] ([pGlu]HWK(Butyryl)HDWK(Daunorubicin(13-NOCH2CO))P-NHEt), the IC50 came out at 17.84 ± 0.08 µM in series [1], 2.23 ± 0.4 µM in series [2] and 12.4 ± 2.3 µM in series [3]. <E-D-Tic-K(Bu)HDWK(Dau=Aoa)PG-NH2: in series [4], the cleaved bond entry is given as “Lys(Bu)4-His5; also recorded: His5-Asp6; also recorded: Asp6-Trp7; also recorded: Trp7-Lys(Dau=Aoa)8; also recorded: Lys(Dau=Aoa)8-Pro9; also recorded: Pro9-Gly10” and the fragment found entry was “<E-D-Tic-K(Bu)HDWK(Dau=Aoa)-OH; also recorded: <E-D-Tic-K(Bu)HD-OH; also recorded: <E-D-Tic-K(Bu)H-OH; also recorded: H-K(Dau=Aoa)P-OH; also recorded: H-Lys(Dau=Aoa)-OH, 1 h”. Besides, the not cleaved result in series [5] is on record as “stable for at least 24 h”.

Take <EHWK(Bu)HDWK(Dau=Aoa)PG-NH2: the cleaved bond result in series [4] is reported as “Pro9-Gly10; also recorded: His2-Trp3; also recorded: Trp3-Lys(Bu)4; also recorded: Lys(Bu)4-His5, first_seen, 5 min; also recorded: His5-Asp6; also recorded: Asp6-Trp7; also recorded: Trp7-Lys(Dau=Aoa)8; also recorded: Lys(Dau=Aoa)8-Pro9”. Besides, in series [5], the not cleaved result is listed as “stable for at least 24 h”. bombesin: in series [6], the displacement of triptorelin entry is on record as “not able to displace triptorelin”. In the case of epidermal growth factor, in series [7], the “displacement of [125I]-GnRH-I-[6D-Trp] binding” value is given as “did not displace the radioligand”. Take human growth hormone: the “displacement of [125I]-GnRH-I-[6D-Trp] binding” value in series [7] is “did not displace the radioligand”. The same measure, in the same setting: for somatostatin [reference compound] the value was “did not displace the radioligand”. Regarding somatostatin-14, in series [6], the displacement of triptorelin entry is recorded as “not able to displace triptorelin”.

Broadly, the IC50 is the concentration that inhibits the measured activity by half.
